According to publication PMC4255150 (Structure (London, England : 1993), 2014):

Target: T1, AmiA (Bacteroides uniformis, UniProt A0ABC9NAU1)
T1 sequence (A0ABC9NAU1 24-262): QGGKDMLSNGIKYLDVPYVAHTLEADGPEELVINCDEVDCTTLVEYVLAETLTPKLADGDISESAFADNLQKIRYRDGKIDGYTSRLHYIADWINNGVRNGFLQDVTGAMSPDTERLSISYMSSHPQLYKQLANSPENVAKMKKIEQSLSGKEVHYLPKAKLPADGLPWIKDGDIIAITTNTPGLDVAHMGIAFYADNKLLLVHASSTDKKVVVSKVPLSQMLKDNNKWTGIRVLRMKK
Assay: HPLC inhibition assay with TCT
Assay type: biochemical
Settings: 0.1 mM TCT substrate, pH 7.8, 37°C

Compound	% activity retained at 1 mM (reaction product)	% activity retained at 1 mM
CC(=O)N[C@H]1[C@H](O[C@H]2[C@H](O[C@H](C)C(=O)O)[C@@H](NC(C)=O)[C@@H]3OC[C@H]2O3)O[C@H](CO)[C@@H](O)[C@@H]1O [GlcNAc-anhMurNAc]	15%	–
CC(=O)N[C@H]1C(O)O[C@H](CO)[C@@H](O)[C@@H]1O (stereo partly drawn) [GlcNAc]	–	98%
CC(=O)N[C@H]1C(O)O[C@H](CO)[C@@H](O)[C@@H]1O[C@H](C)C(=O)O (stereo partly drawn) [MurNAc]	–	25%
